Measurements published in article PMC7029560, “Functional characterization of acyl-CoA binding protein in Neospora caninum” (Parasites & Vectors, 2020).

Target: T1, NcACBP (rNcACBP-GST) (Neospora caninum, UniProt F0VR91)
T1 construct: gene NCLIV_066640
T1 sequence (F0VR91 1-95): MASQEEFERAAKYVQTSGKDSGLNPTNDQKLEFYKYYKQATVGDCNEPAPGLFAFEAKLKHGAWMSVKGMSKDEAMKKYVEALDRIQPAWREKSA
Assay: fluorescence binding assay (SpectraMax M5, […] nm)
Conditions: 1 uM GST-fusion protein, 0-0.3 uM ligand, PBS, room temperature, 5 min; labelled compound

With NBD-C16:0-CoA the Kd was 11.7 nM.
